Test results as given in patent publication US9359373B1, “Lipophilic N-substituted norcantharimide derivatives and uses thereof” (priority 2014, dated 2016).
Like-named read-outs stand apart in the source and are kept apart here.

Experiments:
HepG2 cells [1] = test: Hoechst 33528 staining, nuclear morphological changes; format: cell-based, human; details: 40 μM, 48 hours, FIG. 1
Method: Staining with Hoechst 33528 was performed according to the method described previously (Huang et al., Cytotechnology 2009, 59, 201-208). Briefly, cells were treated with 40 μM norcantharidin, NOC15, or NC15 for 48 hours, then washed with PBS saline and stained with Hoechst 33528 (Sigma, St. Louis, Mo., USA) at a final concentration of 10 μg/mL. The slides were examined under a fluorescence microscope. Cells with a small nucleus, a high fluorescence intensity (due to chromatin condensation) or nuclear fragmentation were considered apoptotic.
To further investigate the role of apoptosis in the cytotoxicity of NOC15 and NC15, HepG2 cells were incubated with compound 2, NOC15 and NC15, respectively, for 48 hours; then were stained with Hoechst 33528 and examined by fluorescence microscope for any topical morphological changes.

HepG2 cells [2] = test: Cell cycle distribution by flow cytometry (PI), HepG2; format: cell-based, human; details: 48 hours, FIG. 2
Method: Cultured cells with or without pre-treatment of the compounds of this invention (i.e., norcantharidin, NOC15, or NC15, 10-60 μM for 48 hours) were harvested from the cultured media and fixed by incuating with 75% iced cold ehtanol and kept at −20° C. until analysis. The fixed cells were then washed with PBS, and treated with […] (200 μg/mL, 500 μL) for about 1.5 hour at 37° C. Precipitated cells were collected by centrifugation and re-suspended in a buffer solution containing propidium iodine (PI) (40 μg/ml) and incubated in the dark for 20 min at 20-25° C. before being subject to flow cytometry analysis, where cell numbers at respective cell cycles were determined.
(§1) HepG2 cells were treated with 10-60 μM of the test compounds for 48 hours, then cell cycle distribution and apoptosis analysis was analyzed by flow cytometry, with the subG1 phase being stained with propidium idoine (PI). Results are illustrated in FIGS. 2 and 3.

L1210 cells = test: Ex vivo growth of leukemia cells (L1210); format: cell-based, mouse; details: read-out: concentration suppressing ex vivo growth of L1210 cells for about 50%
[3] = Body weight of treated animals; format: in vivo, mice; details: 18 mg/Kg, compared with healthy normal control, FIG. 11
Method: To inoculate tumor, L1210 cells (1×10^6 cells per injection) were injected either subcutaneously or intraperitoneally to lab animals to generate tumors on day 1. After 7 days, NOC15 or NC15 (diluted in normal saline) was administered intra-peritoneally at a dose of 18 mg/kg every day for 7 days. The average body weight (BW) of the animals was measured daily.
Mice were inoculated with L1210 tumor cells in accordance with the procedures described in the section of “Materials and Methods.” For in vivo therapy, animals were given 18 mg/Kg NOC15 or NC15 by intra-peritoneal route, for a period of at least 7 days. Tumor size, animal body weight, respective weights of liver and spleen, as well as the white blood cell count of each animal were then measured respectively at the indicated time. Results are depicted in FIGS. 8 to 11, respectively.

[4] = system: human lymphoblast cells (NHL); test: Cell viability (CCK-8), normal lymphoblast cells; format: cell-based; details: 24 hours (NC15: 24 and 48 hours), FIG. 4, FIG. 6
Method: The cell viability assays were performed in 96-well plates. The 100 μl of cell suspensions (NHL or Jurkat T cells, 5×10^3 cells/well, serum-free medium) were inoculated in the wells and the plates were pre-incubated in the incubator for 24 hours (pre-incubated for 22 hours and stimulated with PMA 5 ng/ml plus ionomycin 250 ng/ml for 2 hours in PMAI-treated groups). Then, various concentrations of norcantharidin (0, 2, 4, 15, 30 and 60 μM) or NOC15 (0, 0.25, 0.5, 1, 2 and 4 μM) were added into the culture media in the wells. After 24 hours of incubation, the cell viability of NHL and Jurkat T cells was measured by cell counting kit-8 (CCK-8, Sigma). The half maximal inhibitory concentrations (IC50) of norcantharidin and NOC15 on Jurkat T cells and NHL cells were calculated.
In this example, a model of phorbol 12-myristate 13-acetate plus ionomycin (PMAI) activated leukemia Jurkat T cells model was employed to investigate the effects of the NOC15 on human leukemia cells (Jurkat T cells) and human lymphoblast cells (NHL).

SW480 = test: MTT cell viability, SW480; format: cell-based, human; details: Homo sapiens, SW480, 48 hours, Mean ± SD, read-out: Growth Inhibition IC50 SW480
Method: (§2) Cell lines used in the present disclosure include human liver carcinonoma cell line HepG2, human bladder carcinoma cell line BFTC905, human colon carcinoma cell lines HT29 and SW480, and human leukemia cell lines HL60 and Jurkat T, and mouse lymphocytic leukemia cell line L1210. Each cell lines were cultured and maintained in Dulbecco's modified Eagle media (DMEM) or RPMI 1640 medium supplemented with 10% heat inactivated fetal bovine serum (FBS), 1% penicillin/streptomycin, in 5% CO2195% air at 37° C.
(§3) The absorbance of the solution at 540 nm was measured by spectrophotometer. The IC50 values were defined as the drug concentration that inhibit 50% cell growth by setting the viability of untreated cells as 100%. Values were represented as the mean±SD from at least 3 independent experiments.
(§4) Effects of the compounds of formula (I) of this disclosure, specifically, NOC15 and NC 15, on HepG2 cells (liver carcinoma), BFTC905 (bladder carcinoma), HT29 (colon carcinoma), SW480 (colon carcinoma) and HL60 (leukemia) were assessed by cell viability analysis in accordance with procedures described above, in which compound 2, and other known anti-cancer agents including 5-FU, cisplatin and doxorubicin were respectively used as positive controls.

HL60 = test: MTT cell viability, HL60; format: cell-based, human
Method: as §2, §3, §4

HT29 = test: MTT cell viability, HT29; format: cell-based, human; details: Homo sapiens, HT-29, 48 hours, Mean ± SD, read-out: Growth Inhibition IC50 HT-29
Method: as §2, §3, §4

HepG2 cells [5] = test: Apoptotic analysis annexin-V/PI flow cytometry; format: cell-based, human; details: 10-60 μM, 48 hours, FIG. 3
Method: The percentage of apototic cells was determined according to the manufacturer's protocol by using an annexin-V/FITC kit/propidium iodine (PI) flow cytometer. To facilitate the detection of apoptosis, the treated cells were centrifuged for 5 min at a speed of 1,000×g at room temperature, and then resuspended and washed once with 5 mL PBS before being stained with annexin-V/PI (apoptosis detection kit, R&D Systems, Taipei, Taiwan).
as §1

CC(C)=CCCC(C)=CCCC(C)=CCN1C(=O)C2C3CCC(O3)C2C1=O (stereo not shown) [Compound 18, N-farnesyl-7-oxabicyclo[2.2.1]heptane-2,3-dicarboximide]
nuclear morphological changes (apoptosis features) (HepG2 cells [1]): Significant morphological features of apotosis | fraction of apoptotic cells (subG1) (HepG2 cells [2]; 10 μM): 3.7% | fraction of apoptotic cells (subG1) (HepG2 cells [2]; 60 μM): 19.8% | accumulation of cells in G2/M phase (HepG2 cells [2]; 10-60 μM): inducing the accumulation of cells in G2/M phase | IC50 (L1210 cells; L1210, time not given, listed as NC15): ~2.6 µM | IC50 (L1210 cells; Mus musculus, L1210, L1210, time not given): ~1.6 µM | total body weight along the course of treatment [3]: eventually brought the animal body weight to the level same as the control | cytotoxicity to normal lymphatic/lymphoblast cells (NHL) [4]: did not possess significant cytotoxicity | IC50 (SW480): 33.1 ± 1 µM | IC50 (HL60; Homo sapiens, HL-60, MTT, 48 hours, Mean ± SD, read-out: Growth Inhibition IC50 HL-60): 79.8 ± 1.1 µM | response of leukemia cell line HL60 to treatment (HL60; in words, from Table 1): did respond | IC50 (HT29): 14.8 ± 1.9 µM | percentage of apoptotic cells / cell death (HepG2 cells [5]): dose-dependent
